Measurements taken from patent US9242970B2 (ACTELION PHARMACEUTICALS LTD., priority 2010, dated 2016).
Read-outs that look alike come from different tables or passages of the source.

Legend:
human orexin-1 receptor = human orexin-1 receptor (Homo sapiens (Human), UniProt O43613); assay: In vitro assay: intracellular calcium measurements (FLIPR), antagonistic activity; assay type: cell-based; details: CHO cells, 3 nM orexin-A, marked values are geometric means of n = 2-6, read-out: IC50 OX1
human orexin-2 receptor = human orexin-2 receptor (Homo sapiens (Human), UniProt O43614); assay: as above; assay type: cell-based; details: CHO cells, 3 nM orexin-A, marked values are geometric means of n = 2-6, read-out: IC50 OX2
Sequence of human orexin-2 receptor (O43614 whole entry): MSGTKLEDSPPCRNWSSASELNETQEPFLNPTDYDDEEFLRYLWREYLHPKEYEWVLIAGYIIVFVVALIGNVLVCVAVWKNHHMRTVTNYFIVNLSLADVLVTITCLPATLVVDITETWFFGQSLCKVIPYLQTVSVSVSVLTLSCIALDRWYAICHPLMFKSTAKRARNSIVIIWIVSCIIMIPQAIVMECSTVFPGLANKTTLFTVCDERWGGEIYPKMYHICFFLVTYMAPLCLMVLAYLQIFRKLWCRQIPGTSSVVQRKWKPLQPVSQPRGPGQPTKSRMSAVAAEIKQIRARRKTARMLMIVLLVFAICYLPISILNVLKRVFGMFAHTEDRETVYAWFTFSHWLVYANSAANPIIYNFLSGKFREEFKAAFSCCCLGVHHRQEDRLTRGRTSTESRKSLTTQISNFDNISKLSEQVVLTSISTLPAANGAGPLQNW

[1] = compound incubation time of 10 min

Sequence of human orexin-1 receptor (O43613 whole entry): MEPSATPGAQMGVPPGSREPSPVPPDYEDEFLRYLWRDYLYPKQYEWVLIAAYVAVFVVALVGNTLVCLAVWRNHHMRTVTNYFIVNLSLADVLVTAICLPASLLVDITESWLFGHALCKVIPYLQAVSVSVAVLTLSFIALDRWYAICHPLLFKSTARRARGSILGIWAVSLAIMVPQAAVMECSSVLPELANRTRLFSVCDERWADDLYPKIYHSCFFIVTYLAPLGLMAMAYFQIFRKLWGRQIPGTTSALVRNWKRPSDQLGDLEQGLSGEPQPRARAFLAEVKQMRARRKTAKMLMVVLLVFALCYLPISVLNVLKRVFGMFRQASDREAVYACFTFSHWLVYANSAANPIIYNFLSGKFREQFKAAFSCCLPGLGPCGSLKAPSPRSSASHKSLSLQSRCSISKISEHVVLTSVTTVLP

| Compound | IC50 (human orexin-1 receptor; compound incubation 120 min) [nM] | IC50 (human orexin-2 receptor; compound incubation 120 min) [nM] | IC50 (human orexin-1 receptor; [1]) [nM] | IC50 (human orexin-2 receptor; [1]) [nM] |
| --- | --- | --- | --- | --- |
| COc1cccc(OC)c1C1CCC(=O)N1Cc1nc2ccccc2s1 (centres unmarked) [Example 128, 1-(benzo[d]thiazol-2-ylmethyl)-5-(2,6-dimethoxyphenyl)pyrrolidin-2-one] | 3880 | 2050 | – | – |
| COc1cccc(OC)c1C1CCC(=O)N1Cc1cccc(N2CCCCC2)c1 (centres unmarked) [Example 129, 5-(2,6-dimethoxyphenyl)-1-(3-(piperidin-1-yl)benzyl)pyrrolidin-2-one] | 198 | 858 | – | – |
| COc1cccc(OC)c1C1CCC(=O)N1Cc1cccc(N2CCCCC2)n1 (centres unmarked) [Example 130, 5-(2,6-dimethoxyphenyl)-1-((6-(piperidin-1-yl)pyridin-2-yl)methyl)pyrrolidin-2-one] | 636 | 690 | – | – |
| COc1cccc(OC)c1C1CC(C)C(=O)N1Cc1ccc2ccccc2c1 (centres unmarked) [Example 131, 5-(2,6-dimethoxyphenyl)-3-methyl-1-(naphthalen-2-ylmethyl)pyrrolidin-2-one] | 27 | 455 | – | – |
| COc1cccc(OC)c1C1CC(C)C(=O)N1Cc1cccc(-c2nccs2)c1 (centres unmarked) [Example 132, 5-(2,6-dimethoxyphenyl)-3-methyl-1-(3-(thiazol-2-yl)benzyl)pyrrolidin-2-one] | 4 | 44 | – | – |
| COc1cccc(OC)c1C1CC(C)C(=O)N1Cc1cccc(-c2csc(C)n2)c1 (centres unmarked) [Example 133, 5-(2,6-dimethoxyphenyl)-3-methyl-1-(3-(2-methylthiazol-4-yl)benzyl)pyrrolidin-2-one] | 2 | 24 | – | – |
| COc1cccc(OC)c1C1CC(C)C(=O)N1Cc1cccc(N2CCCCC2)c1 (centres unmarked) [Example 134, 5-(2,6-dimethoxyphenyl)-3-methyl-1-(3-(piperidin-1-yl)benzyl)pyrrolidin-2-one] | 37 | 157 | – | – |
| COc1cccc(OC)c1C1CC(C)C(=O)N1Cc1cccc(-n2cccn2)c1 (centres unmarked) [Example 135, 1-(3-(1H-pyrazol-1-yl)benzyl)-5-(2,6-dimethoxyphenyl)-3-methylpyrrolidin-2-one] | 23 | 264 | – | – |
| COc1cccc(OC)c1C1CCC(=O)N1Cc1cccc(-c2noc(C)n2)c1 (centres unmarked) [Example 136, 5-(2,6-dimethoxyphenyl)-1-(3-(5-methyl-1,2,4-oxadiazol-3-yl)benzyl)pyrrolidin-2-one] | 219 | 547 | – | – |
| COc1cccc(OC)c1C1CC(C)C(=O)N1Cc1ccc2oc3ccccc3c2c1 (centres unmarked) [Example 137, 1-(dibenzo[b,d]furan-2-ylmethyl)-5-(2,6-dimethoxyphenyl)-3-methylpyrrolidin-2-one] | 2 | 5 | – | – |
| COc1cccc(OC)c1C1CC(C)C(=O)N1Cc1cccc(-c2ccccc2)n1 (centres unmarked) [Example 138, 5-(2,6-dimethoxyphenyl)-3-methyl-1-((6-phenylpyridin-2-yl)methyl)pyrrolidin-2-one] | 32 | 29 | – | – |
| COc1cccc(OC)c1C1CC(C)C(=O)N1Cc1ccnc(-c2ccccc2)c1 (centres unmarked) [Example 139, 5-(2,6-dimethoxyphenyl)-3-methyl-1-((2-phenylpyridin-4-yl)methyl)pyrrolidin-2-one] | 35 | 172 | – | – |
| COc1cccc(OC)c1C1CC(C)C(=O)N1Cc1cccc(-c2ccccn2)c1 (centres unmarked) [Example 140, 5-(2,6-dimethoxyphenyl)-3-methyl-1-(3-(pyridin-2-yl)benzyl)pyrrolidin-2-one] | 10 | 73 | – | – |
| COc1cccc(OC)c1C1CC(C)C(=O)N1Cc1cccc(-c2cccnc2)c1 (centres unmarked) [Example 141, 5-(2,6-dimethoxyphenyl)-3-methyl-1-(3-(pyridin-3-yl)benzyl)pyrrolidin-2-one] | 35 | 28 | – | – |
| COc1cccc(OC)c1C1CC(C)C(=O)N1Cc1cccc(-c2ncccn2)c1 (centres unmarked) [Example 142, 5-(2,6-dimethoxyphenyl)-3-methyl-1-(3-(pyrimidin-2-yl)benzyl)pyrrolidin-2-one] | 11 | 40 | – | – |
| COc1cccc(OC)c1C1CC(C)C(=O)N1Cc1cccc(-c2noc(C)n2)c1 (centres unmarked) [Example 143, 5-(2,6-dimethoxyphenyl)-3-methyl-1-(3-(5-methyl-1,2,4-oxadiazol-3-yl)benzyl)pyrrolidin-2-one] | 27 | 46 | – | – |
| COc1cccc(OC)c1C1CC(C)C(=O)N1Cc1cnn(-c2ccccc2)c1 (centres unmarked) [Example 144, 5-(2,6-dimethoxyphenyl)-3-methyl-1-((1-phenyl-1H-pyrazol-4-yl)methyl)pyrrolidin-2-one] | 223 | 318 | – | – |
| COc1cccc(OC)c1C1CC(C)C(=O)N1Cc1csc(-c2ccccc2)n1 (centres unmarked) [Example 145, 5-(2,6-dimethoxyphenyl)-3-methyl-1-((2-phenylthiazol-4-yl)methyl)pyrrolidin-2-one] | 28 | 54 | – | – |
| COc1cccc(OC)c1C1CC(C)C(=O)N1Cc1cccc(-c2ccccn2)c1F (centres unmarked) [Example 146, 5-(2,6-dimethoxyphenyl)-1-(2-fluoro-3-(pyridin-2-yl)benzyl)-3-methylpyrrolidin-2-one] | 39 | 230 | – | – |

| Compound | IC50 (human orexin-1 receptor; compound incubation 120 min) [nM] | IC50 (human orexin-2 receptor; compound incubation 120 min) [nM] | IC50 (human orexin-1 receptor; [1]) [nM] | IC50 (human orexin-2 receptor; [1]) [nM] |
| --- | --- | --- | --- | --- |
| COc1cccc(OC)c1C1CC(C)C(=O)N1Cc1cccc(-c2cncs2)c1 (centres unmarked) [Example 147, 5-(2,6-dimethoxyphenyl)-3-methyl-1-(3-(thiazol-5-yl)benzyl)pyrrolidin-2-one] | 20 | 114 | – | – |
| COc1cccc(OC)c1C1CC(C)C(=O)N1Cc1cccc(-c2ncc(C)s2)c1 (centres unmarked) [Example 148, 5-(2,6-dimethoxyphenyl)-3-methyl-1-(3-(5-methylthiazol-2-yl)benzyl)pyrrolidin-2-one] | 3 | 21 | – | – |
| COc1cccc(OC)c1C1CC(C)C(=O)N1Cc1cccc(-n2nccn2)c1 (centres unmarked) [Example 149, 1-(3-(2H-1,2,3-triazol-2-yl)benzyl)-5-(2,6-dimethoxyphenyl)-3-methylpyrrolidin-2-one] | 6 | 77 | – | – |
| COc1cccc(OC)c1C1CC(C)C(=O)N1Cc1cccc(-c2cscn2)c1 (centres unmarked) [Example 150, 5-(2,6-dimethoxyphenyl)-3-methyl-1-(3-(thiazol-4-yl)benzyl)pyrrolidin-2-one] | 7 | 47 | – | – |
| COc1cccc(OC)c1C1CC(C)C(=O)N1Cc1ccc2nc(C)sc2c1 (centres unmarked) [Example 151, 5-(2,6-dimethoxyphenyl)-3-methyl-1-((2-methylbenzo[d]thiazol-6-yl)methyl)pyrrolidin-2-one] | 125 | 703 | – | – |
| COc1cccc(OC)c1C1CC(C)C(=O)N1Cc1cc(Cl)cc(-c2ccccn2)c1 (centres unmarked) [Example 152, 1-(3-chloro-5-(pyridin-2-yl)benzyl)-5-(2,6-dimethoxyphenyl)-3-methylpyrrolidin-2-one] | 74 | 270 | – | – |
| COc1cccc(OC)c1C1CC(C)C(=O)N1Cc1ccc(F)c(-c2ccccn2)c1 (centres unmarked) [Example 153, 5-(2,6-dimethoxyphenyl)-1-(4-fluoro-3-(pyridin-2-yl)benzyl)-3-methylpyrrolidin-2-one] | 8 | 122 | – | – |
| COc1cccc(OC)c1C1CC(C)C(=O)N1Cc1ccnc(-n2cccn2)c1 (centres unmarked) [Example 154, 1-((2-(1H-pyrazol-1-yl)pyridin-4-yl)methyl)-5-(2,6-dimethoxyphenyl)-3-methylpyrrolidin-2-one] | 10 | 204 | – | – |
| COc1cccc(OC)c1C1CC(C)C(=O)N1Cc1cccc(-n2cccn2)n1 (centres unmarked) [Example 155, 1-((6-(1H-pyrazol-1-yl)pyridin-2-yl)methyl)-5-(2,6-dimethoxyphenyl)-3-methylpyrrolidin-2-one] | 134 | 1180 | – | – |
| COc1cccc(OC)c1C1CCCC(=O)N1Cc1ccc(OC(F)(F)F)cc1 (centres unmarked) [Example 156, 6-(2,6-dimethoxyphenyl)-1-(4-(trifluoromethoxy)benzyl)piperidin-2-one] | – | – | 259 | 22 |
| COc1cccc(OC)c1C1CCCC(=O)N1Cc1ccc(F)cc1 (centres unmarked) [Example 157, 6-(2,6-dimethoxyphenyl)-1-(4-fluorobenzyl)piperidin-2-one] | – | – | 1460 | 231 |
| COc1cccc(OC)c1C1CCCC(=O)N1Cc1ccc(Cl)cc1 (centres unmarked) [Example 158, 1-(4-chlorobenzyl)-6-(2,6-dimethoxyphenyl)piperidin-2-one] | – | – | 702 | 154 |
| COc1ccc(CN2C(=O)CCCC2c2c(OC)cccc2OC)cc1 (centres unmarked) [Example 159, 6-(2,6-dimethoxyphenyl)-1-(4-methoxybenzyl)piperidin-2-one] | – | – | 684 | 397 |
| COc1cccc(OC)c1C1CCCC(=O)N1Cc1ccc(OC(F)(F)F)c(F)c1 (centres unmarked) [Example 160, 6-(2,6-dimethoxyphenyl)-1-(3-fluoro-4-(trifluoromethoxy)benzyl)piperidin-2-one] | – | – | 238 | 18 |
| COc1cccc(OC)c1C1CCCC(=O)N1Cc1ccc(OC(F)(F)F)c(Cl)c1 (centres unmarked) [Example 161, 1-(3-chloro-4-(trifluoromethoxy)benzyl)-6-(2,6-dimethoxyphenyl)piperidin-2-one] | – | – | 147 | 62 |
| COc1cccc(OC)c1C1CCCC(=O)N1Cc1ccc(SC(F)(F)F)cc1 (centres unmarked) [Example 162, 6-(2,6-dimethoxyphenyl)-1-(4-((trifluoromethyl)thio)benzyl)piperidin-2-one] | – | – | 1310 | 62 |
| COc1cccc(OC)c1C1CCCC(=O)N1Cc1ccc(C(F)(F)F)cc1 (centres unmarked) [Example 163, 6-(2,6-dimethoxyphenyl)-1-(4-(trifluoromethyl)benzyl)piperidin-2-one] | – | – | 1190 | 171 |
| COc1cccc(OC)c1C1CCCC(=O)N1Cc1ccc(Oc2ccccc2)cc1 (centres unmarked) [Example 164, 6-(2,6-dimethoxyphenyl)-1-(4-phenoxybenzyl)piperidin-2-one] | – | – | 409 | 27 |
